Measurements reported in PubChem BioAssay (NCI).
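Tested at 5 concentrations; 48 h exposure; 96-well plates; endpoints linearly interpolated, else capped at highest concentration. GI50 = concentration required for 50% inhibition of growth. TGI: total growth inhibition.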

What was measured:
Test in all cases: NCI-60 cell line screen, 48 h
[1] = system: UACC-257 melanoma
[2] = system: UACC-62 melanoma
[3] = system: ACHN renal
[4] = system: HCT-116 colon
[5] = system: T-47D breast
[6] = system: OVCAR-8 ovarian
[7] = system: OVCAR-3 ovarian
[8] = system: SW-620 colon
[9] = system: HT29 colon
[10] = system: HCC-2998 colon
[11] = system: RXF 393 renal
[12] = system: A549 NSCLC
[13] = system: NCI/ADR-RES ovarian
[14] = system: HS 578T breast
[15] = system: DU-145 prostate
[16] = system: CCRF-CEM leukemia
[17] = system: NCI-H460 lung
[18] = system: OVCAR-5 ovarian
[19] = system: RPMI-8226 leukemia
[20] = system: IGROV1 ovarian
[21] = system: NCI-H23 lung
[22] = system: NCI-H522 lung
[23] = system: 786-0 renal
[24] = system: CAKI-1 renal
[25] = system: MOLT-4 leukemia
[26] = system: MALME-3M melanoma
[27] = system: HL-60(TB) leukemia
[28] = system: OVCAR-4 ovarian
[29] = system: EKVX NSCLC
[30] = system: UO-31 renal
[31] = system: SK-MEL-2 melanoma
[32] = system: HCT-15 colon
[33] = system: M14 melanoma
[34] = system: NCI-H226 lung
[35] = system: A498 renal
[36] = system: SK-MEL-5 melanoma
[37] = system: HOP-92 NSCLC
[38] = system: MDA-MB-231 breast
[39] = system: SK-OV-3 ovarian
[40] = system: K-562 leukemia
[41] = system: KM12 colon
[42] = system: COLO 205 colon
[43] = system: SF-539 CNS
[44] = system: LOX IMVI melanoma
[45] = system: HOP-62 NSCLC
[46] = system: SF-268 CNS
[47] = system: SN12C renal
[48] = system: MDA-MB-435
[49] = system: SNB-75 CNS
[50] = system: MCF7 breast
[51] = system: SK-MEL-28 melanoma
[52] = system: U251 CNS
[53] = system: SNB-19 CNS
[54] = system: BT-549 breast
[55] = system: TK-10 renal
[56] = system: SR leukemia
[57] = system: SF-295 CNS

## CC1(C)N=C(N)N=C(N)N1c1cccc(CCCCc2ccc(Cl)c(S(=O)(=O)F)c2)c1
[1]
  GI50: 1.14 µM
  TGI: 18.7 µM
[2]
  GI50: 0.732 µM
  TGI: 17.2 µM
[3]
  GI50: 20.9 µM
  TGI: > 100 µM
[4]
  GI50: 0.457 µM
  TGI: 13.5 µM
[5]
  GI50: 13.8 µM
  TGI: 30.9 µM
[6]
  GI50: 9.28 µM
  TGI: > 100 µM
[7]
  GI50: 5.58 µM
  TGI: 18.5 µM
[8]
  GI50: 0.455 µM
  TGI: 15.8 µM
[9]
  GI50: 0.441 µM
  TGI: 16.3 µM
[10]
  GI50: 1.92 µM
  TGI: 16 µM
[11]
  GI50: 0.459 µM
  TGI: 16.1 µM
[12]
  GI50: 4.38 µM
  TGI: 36 µM
[13]
  GI50: > 100 µM
  TGI: > 100 µM
[14]
  GI50: 12.6 µM
  TGI: 35.9 µM
[15]
  GI50: 4.09 µM
  TGI: 17.1 µM
[16]
  GI50: 0.764 µM
  TGI: 17.6 µM
[17]
  GI50: 0.938 µM
  TGI: 14.5 µM
[18]
  GI50: 6.02 µM
  TGI: 22.1 µM
[19]
  GI50: 4.97 µM
  TGI: 25.1 µM
[20]
  GI50: 0.66 µM
  TGI: 18.8 µM
[21]
  GI50: 2.83 µM
  TGI: 18.1 µM
[22]
  GI50: 1.26 µM
  TGI: 18.8 µM
[23]
  GI50: 2.67 µM
  TGI: 16.3 µM
[24]
  GI50: 21.3 µM
  TGI: > 100 µM
[25]
  GI50: 1.82 µM
  TGI: 19.2 µM
[26]
  GI50: 9.71 µM
  TGI: 28.3 µM
[27]
  GI50: 0.563 µM
  TGI: 12.1 µM
[28]
  GI50: 11.8 µM
  TGI: 29.6 µM
[29]
  GI50: 11.4 µM
  TGI: 39.8 µM
[30]
  GI50: > 100 µM
  TGI: > 100 µM
[31]
  GI50: 8.53 µM
  TGI: 25.4 µM
[32]
  GI50: 6.47 µM
  TGI: > 100 µM
[33]
  GI50: 3.21 µM
  TGI: 17.4 µM
[34]
  GI50: 8.38 µM
  TGI: 28.5 µM
[35]
  GI50: 16.4 µM
  TGI: 52.9 µM
[36]
  GI50: 0.612 µM
  TGI: 12.9 µM
[37]
  GI50: 4.7 µM
  TGI: 21.4 µM
[38]
  GI50: 11 µM
  TGI: 25.8 µM
[39]
  GI50: 11.7 µM
  TGI: 27.8 µM
[40]
  GI50: 0.521 µM
  TGI: 15.2 µM
[41]
  GI50: 1.79 µM
  TGI: 15.6 µM
[42]
  GI50: 1.75 µM
  TGI: 18.6 µM
[43]
  GI50: 0.504 µM
  TGI: 13 µM
[44]
  GI50: 0.433 µM
  TGI: 16.1 µM
[45]
  GI50: 6.34 µM
  TGI: 21.2 µM
[46]
  GI50: 1.47 µM
  TGI: 16.2 µM
[47]
  GI50: 0.967 µM
  TGI: 16.4 µM
[48]
  GI50: 0.445 µM
  TGI: 15.7 µM
[49]
  GI50: 10.3 µM
  TGI: 22.4 µM
[50]
  GI50: 3.28 µM
  TGI: 17.7 µM
[51]
  GI50: 7.67 µM
  TGI: 21.2 µM
[52]
  GI50: 0.655 µM
  TGI: 21.3 µM
[53]
  GI50: 3.3 µM
  TGI: 18.4 µM
[54]
  GI50: 1.35 µM
  TGI: 17.7 µM
[55]
  GI50: 10.7 µM
  TGI: 39.3 µM
[56]
  GI50: 2.44 µM
  TGI: 16.8 µM
[57]
  GI50: 2.56 µM
  TGI: 13.4 µM
